{"source": "paper PMC10861747", "about": "“In vitro evaluation of the reductive carbonyl idarubicin metabolism to evaluate inhibitors of the formation of cardiotoxic idarubicinol via carbonyl and aldo–keto reductases” (Archives of Toxicology, 2024)", "key": {"AKR1C3 [1]": {"target": "T1, AKR1C3 (Homo sapiens, UniProt P42330)", "T1 construct": "AKR1C3 human ORF-Clone transiently over-expressed in HEK293 cells", "T1 sequence (P42330 1-323)": "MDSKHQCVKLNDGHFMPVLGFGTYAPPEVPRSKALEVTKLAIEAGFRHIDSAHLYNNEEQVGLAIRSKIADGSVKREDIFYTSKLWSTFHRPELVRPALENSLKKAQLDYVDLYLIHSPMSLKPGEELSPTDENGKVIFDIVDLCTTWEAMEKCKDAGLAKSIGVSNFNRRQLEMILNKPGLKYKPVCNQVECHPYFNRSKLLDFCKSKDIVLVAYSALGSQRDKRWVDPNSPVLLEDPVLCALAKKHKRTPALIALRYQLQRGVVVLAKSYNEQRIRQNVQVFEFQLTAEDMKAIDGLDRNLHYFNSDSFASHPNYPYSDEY", "assay": "idarubicinol formation (UPLC-MS/MS) in AKR1C3-transfected HEK293 cells versus empty-vector cells, […] idarubicin", "type": "cell-based"}, "AKR1C3 [2]": {"target": "T1, AKR1C3", "assay": "inhibition of idarubicinol formation (UPLC-MS/MS) in HEK293 cells over-expressing AKR1C3, compared with empty-vector control", "type": "cell-based"}}, "data": [{"smiles": "CC(=O)[C@]1(O)Cc2c(O)c3c(c(O)c2[C@@H](O[C@H]2C[C@H](N)[C@H](O)[C@H](C)O2)C1)C(=O)c1ccccc1C3=O", "note": "[idarubicin]", "values": [{"measurement": "idarubicinol formation (UPLC-MS/MS) in AKR1C3-transfected HEK293 cells versus em", "setting": "AKR1C3 [1]", "value": "the over-expression lead to a significantly higher idarubicinol formation in HEK293 cells"}]}, {"smiles": "O=C1C[C@@]2(C(=O)N1)C(=O)N(Cc1ccc(Br)cc1F)C(=O)c1cccn12", "note": "[ranirestat]", "values": [{"measurement": "IC50", "setting": "AKR1C3 [2]", "value": "500 ± 100", "unit": "nM"}]}]}
